Here are results for 7 compounds from patent publication US20080275018A1, “ANTIBACTERIAL AMIDE-MACROCYCLES V” (AiCuris GmbH & Co. KG, priority 2005, published 2008).

≈ marks a conversion by molar mass, not a printed value. Counter-ions that a name gives are not always drawn. Like-named read-outs stand apart in the source and are kept apart here.

In one test the test system is S. aureus 133. Nature of the test: Minimum inhibitory concentration (MIC), S. aureus 133. The test is classed as cell-based, Staphylococcus aureus. The method, then:
(§1) The minimum inhibitory concentration (MIC) is the minimum concentration of an antibiotic with which the growth of a test microbe is inhibited over 18-24 h. The inhibitor concentration can in these cases be determined by standard microbiological methods (see, for example, The National Committee for Clinical Laboratory Standards. Methods for dilution antimicrobial susceptibility tests for bacteria that grow aerobically; approved standard-fifth edition. NCCLS document M7-A5 [ISBN 1-56238-394-9]. NCCLS, 940 West Valley Road, Suite 1400, Wayne, Pa. 19087-1898 USA, 2000). The test substances are thereby initially provided in 1:2 dilution series into 96-well round-bottom microtiter plates (Greiner) double-concentrated in 50 μl of test medium. The aerobically growing test microbes (e.g. staphylococci and enterococci), which are incubated overnight on Columbia blood agar plates (Becton-Dickinson), are, after resuspension in 0.9% NaCl, adjusted to a microbe count of about 5×10^7 microbes/ml and then diluted 1:150 in cation-adjusted MH medium (test medium). 50 μL of this suspension are pipetted onto the test preparations provided in the microtiter plates. The cultures are incubated at 37° C. for 18-24 hours. For microaerophilically growing microbes (e.g. streptococci), 2% lysed horse blood in the final concentration is added to the medium and the cultures are incubated in the presence of 5% CO2. The lowest substance concentration in each case at which no visible bacterial growth occurs any longer is defined as the MIC and is reported in μg/ml.
(§2) The minimum inhibitory concentration (MIC) is the minimum concentration of an antibiotic with which the growth of a test microbe is inhibited over 18-24 h. The inhibitor concentration can in these cases be determined by standard microbiological methods (see, for example, The National Committee for Clinical Laboratory Standards. Methods for dilution antimicrobial susceptibility tests for bacteria that grow aerobically; approved standard-fifth edition. NCCLS document M7-A5 [ISBN 1-56238-394-9]. NCCLS, 940 West Valley Road, Suite 1400, Wayne, Pa. 19087-1898 USA, 2000). The MIC of the compounds of the invention is determined in the liquid dilution test on the 96-well microtiter plate scale. The bacterial microbes are cultivated in a minimal medium (18.5 mM Na2HPO4, 5.7 mM KH2PO4, 9.3 mM NH4Cl, 2.8 mM MgSO4, 17.1 mM NaCl, 0.033 μg/ml thiamine hydrochloride, 1.2 μg/ml nicotinic acid, 0.003 μg/ml biotin, 1% glucose, 25 μg/ml of each proteinogenic amino acid with the exception of phenylalanine; [H.-P. Kroll; unpublished]) with the addition of 0.4% BH broth (test medium). In the case of Enterococcus faecium L4001, heat-inactivated fetal calf serum (FCS; GibcoBRL, Germany) is added to the test medium in a final concentration of 10%. Overnight cultures of the test microbes are diluted to an OD578 of 0.001 (to 0.01 in the case of enterococci) in fresh test medium, and incubated 1:1 with dilutions of the test substances (1:2 dilution steps) in test medium ([…]). The cultures are incubated at 37° C. for 18-24 hours; enterococci in the presence of 5% CO2.
(§3) The lowest substance concentration in each case at which no visible bacterial growth occurs any longer is defined as the MIC.
(§4) The minimum inhibitory concentration (MIC) is the minimum concentration of an antibiotic with which the growth of a test microbe is inhibited over 18-24 h. The inhibitor concentration can in these cases be determined by standard microbiological methods with modified medium in an agar dilution test (see, for example, The National Committee for Clinical Laboratory Standards. Methods for dilution antimicrobial susceptibility tests for bacteria that grow aerobically; approved standard-fifth edition. NCCLS document M7-A5 [ISBN 1-56238-394-9]. NCCLS, 940 West Valley Road, Suite 1400, Wayne, Pa. 19087-1898 USA, 2000). The bacterial microbes are cultivated on 1.5% agar plates which contain 20% defibrinated horse blood. […]

For the next test, the system named is S. aureus T17. Nature of the test: Minimum inhibitory concentration (MIC), biphenomycin-resistant S. aureus T17. Type of test: cell-based, Staphylococcus aureus. The following applies: Staphylococcus aureus; biphenomycin-resistant S. aureus T17. As for the experimental part:
as §1, §2, §3, §4

For test [1], the target named is S. aureus 133 Translation. Nature of the test: S. aureus in vitro transcription-translation assay (firefly luciferase, S30 extract). The test is classed as biochemical. The following applies: 50% inhibition of the translation of firefly luciferase. The text has this: For the construction of a reporter plasmid which can be used in an in vitro transcription-translation assay from S. aureus the plasmid pBESTluc (Promega Corporation, USA) is used. The E. coli tac promoter present in this plasmid in front of the firefly luciferase is replaced by the capA1 promoter with corresponding Shine-Dalgarno sequence from S. aureus. The primers CAPFor 5′-[…]-[…] GCCA-3′ and CAPRev 5′-[…]-3′ are used for this. The primer CAPFor contains the capA1 promoter, the ribosome binding site and the 5′ region of the luciferase gene. After PCR using pBESTluc as template it is possible to isolate a PCR product which contains the firefly luciferase gene with the fused capA1 promoter. This is, after restriction with ClaI and HindIII, ligated into the vector pBESTluc which has likewise been digested with ClaI and HindIII. The resulting plasmid pla can be replicated in E. coli and be used as template in the S. aureus in vitro transcription-translation test.
Six litres of BHI medium are inoculated with a 250 ml overnight culture of an S. aureus Strain and allowed to grow at 37° C. until the OD600 nm is 2-4. The cells are harvested by centrifugation and washed in 500 ml of cold buffer A (10 mM Tris acetate, pH 8.0, 14 mM magnesium acetate, 1 mM DTT, 1 M KCl). After renewed centrifugation, the cells are washed in 250 ml of cold buffer A with 50 mM KCl, and the resulting pellets are frozen at −20° C. for 60 min. The pellets are thawed on ice in 30 to 60 min and taken up to a total volume of 99 ml in buffer B (10 mM Tris acetate, pH 8.0, 20 mM magnesium acetate, 1 mM DTT, 50 mM KCl). 1.5 ml portions of lysostaphin (0.8 mg/ml) in buffer B are provided in 3 precooled centrifuge cups and each mixed with 33 ml of the cell suspension. The samples are incubated at 37° C., shaking occasionally, for 45 to 60 min, before 150 μl of a 0.5 M DTT solution are added. The lysed cells are centrifuged at 30 000×g and 4° C. for 30 min. The cell pellet is taken up in buffer B and then centrifuged again under the same conditions, and the collected supernatants are combined. The supernatants are centrifuged again under the same conditions, and 0.25 volumes of buffer C (670 mM Tris acetate, pH 8.0, 20 mM magnesium acetate, 7 mM Na3 phosphoenolpyruvate, 7 mM DTT, 5.5 mM ATP, 70 μM amino acids (complete from Promega), 75 μg of pyruvate kinase (Sigma, Germany)/ml are added to the upper ⅔ of the supernatant. The samples are incubated at 37° C. for 30 min. The supernatants are dialysed against 2 l of dialysis buffer (10 mM Tris acetate, pH 8.0, 14 mM magnesium acetate, 1 mM DTT, 60 mM potassium acetate) in a dialysis tube with a 3500 Da cut-off with one buffer change at 4° C. overnight. The dialysate is concentrated to a protein concentration of about 10 mg/ml by
covering the dialysis tube with cold PEG 8000 powder (Sigma, Germany) at 4° C. The S30 extracts can be stored in aliquots at −70° C.
The inhibition of protein biosynthesis of the compounds can be shown in an in vitro transcription-translation assay. The assay is based on the cell-free transcription and translation of firefly luciferase using the reporter plasmid pla as template and cell-free S30 extracts obtained from S. aureus. The activity of the resulting luciferase can be detected by luminescence measurement.
The amount of S30 extract or plasmid pla to be employed must be tested anew for each preparation in order to ensure an optimal concentration in the test. […] of the substance to be tested, dissolved in 5% DMSO, are introduced into an MTP. Then […] of a suitably concentrated plasmid solution pla are added. […]

A further test concerns E. faecium L4001. Nature of the test: Minimum inhibitory concentration (MIC), E. faecium L4001. The following applies: Enterococcus faecium. The test is classed as cell-based, Enterococcus faecium. The method, then: as §2, §3
[2] abbreviates: Staphylococcus aureus, 133; read-out: MIC S. aureus 133.
Setting [3] is: E. faecium L4001, 10% FCS in test medium, read-out: MIC E. faecium L4001.
[4] abbreviates: Staphylococcus aureus, 133, read-out: MIC S. aureus 133.
[5] abbreviates: L4001, read-out: MIC E. faecium L4001.

In the case of `NCCC[C@H](NC(=O)[C@@H]1Cc2cccc(c2)-c2ccc(O)c(c2)C[C@H](N)C(=O)N[C@@H](C[C@@H](O)CN)C(=O)N1)C(=O)NCCN` [Example 1, (8S,11S,14S)-14-Amino-N-((1S)-4-amino-1-{[(2-aminoethyl)amino]carbonyl)}butyl)-11-[(2R)-3-amino-2-hydroxypropyl]-17-hydroxy-10,13-dioxo-9,12-diazatricyclo[14.3.1.1^2,6]-henicosa-1 (20),2(21),3,5,16,18-hexaene-8-carboxamide tetrahydrochloride], the MIC in the test with S. aureus 133 (setting [2]) was 0.5 µg/mL; against S. aureus T17 it was 1 µg/mL; in the test on E. faecium L4001 (setting [3]), 4 µg/mL. For the same compound, it took 0.07 µM to reach half-maximal inhibition in test [1] (IC50).

`NCCC[C@H](N)CNC(=O)[C@H](CCCN)NC(=O)[C@@H]1Cc2cccc(c2)-c2ccc(O)c(c2)C[C@H](N)C(=O)N[C@@H](CCCN)C(=O)N1` [Example 3, (8S,11S,14S)-14-Amino-N-[(s)-4-amino-1-({[(25)-2,5-diaminopentyl]amino}carbonyl)butyl]-11-(3-aminopropyl)-17-hydroxy-10,13-dioxo-9,12-diazatricyclo[14.3.1.1^2,6]henicosa-1(20),2(21),3,5,16,18-hexaene-8-carboxamide pentahydrochloride]: the values for the MIC in the test on S. aureus 133 (setting [2]), in the test on S. aureus T17 and in the test with E. faecium L4001 (setting [3]) were 2 µg/mL, 2 µg/mL and 16 µg/mL, respectively. In test [1], this compound showed an IC50 of 0.2 µM.

Regarding `NCCNC(=O)[C@@H](N)CCCNC(=O)[C@@H]1Cc2cccc(c2)-c2ccc(O)c(c2)C[C@H](N)C(=O)N[C@@H](C[C@@H](O)CN)C(=O)N1` [Example 5, (8S,11S,14S)-14-Amino-N-{(4S)-4-amino-5-[(2-aminoethyl)amino]-5-oxopentyl}-11-[(2R)-3-amino-2-hydroxypropyl]-17-hydroxy-10,13-dioxo-9,12-diazatricyclo[14.3.1.1^2,6]-henicosa-1(20),2(21),3,5,16,18-hexaene-8-carboxamide tetrahydrochloride], the MIC with S. aureus 133 (setting [4]) stood at 1 µg/mL; in the test with S. aureus T17, 1 µg/mL; with E. faecium L4001 (setting [5]), 2 µg/mL. Further, the IC50 in test [1] was 0.2 µM.

On to `NCCC[C@H](NC(=O)[C@@H]1Cc2cccc(c2)-c2ccc(O)c(c2)C[C@H](N)C(=O)N[C@@H](CCCN)C(=O)N1)C(=O)NCCC[C@H](N)CC(=O)NCCN` [Example 12, (8S,11S,14S)-14-Amino-N-{(1S)-4-amino-1-[({(4S)-4-amino-6-[(2-aminoethyl)amino]-6-oxohexyl}amino)carbonyl]butyl}-11-(3-aminopropyl)-17-hydroxy-10,13-dioxo-9,12-diazatricyclo[14.3.1.1^2,6]henicosa-1(20),2(21),3,5,16,18-hexaene-8-carboxamide pentahydrochloride], for which the results for the minimal inhibitory concentration (MIC) with S. aureus 133 (setting [4]), with S. aureus T17 and in the test with E. faecium L4001 (setting [5]) were 1 µg/mL, 1 µg/mL and 16 µg/mL, respectively.

For `NCCC[C@H](N)CNC(=O)C[C@@H](N)CCCNC(=O)[C@H](CCCN)NC(=O)[C@@H]1Cc2cccc(c2)-c2ccc(O)c(c2)C[C@H](N)C(=O)N[C@@H](CCCN)C(=O)N1` [Example 15, (8S,11S,14S)-14-Amino-N-((1S)-4-amino-1-{[((4S)-4-amino-6-{[(2S)-2,5-diaminopentyl]-amino}-6-oxohexyl)amino]carbonyl}butyl)-11-(3-aminopropyl)-17-hydroxy-10,13-dioxo-9,12-diazatricyclo[14.3.1.1^2,6]henicosa-1 (20),2(21),3,5,16,18-hexaene-8-carboxamide hexahydrochloride], the MIC was 1 µg/mL in the test on S. aureus 133 (setting [4]), 2 µg/mL in the test with S. aureus T17 and > 32 µg/mL in the test with E. faecium L4001 (setting [5]). The IC50 in test [1] is 0.1 µM.

For the compound `NCCC[C@H](N)CNC(=O)C[C@H](CCCN)NC(=O)[C@@H]1Cc2cccc(c2)-c2ccc(O)c(c2)C[C@H](N)C(=O)N[C@@H](CCCN)C(=O)N1` [Example 19, (8S,11S,14S)-14-Amino-N-[(1S)-4-amino-1-(2-{[(2S)-2,5-diaminopentyl]amino}-2-oxoethyl)butyl]-11-(3-aminopropyl)-17-hydroxy-10,13-dioxo-9,12-diazatricyclo[14.3.1.1^2,6]henicosa-1 (20),2(21),3,5,16,18-hexaene-8-carboxamide penta(hydrotrifluoroacetate)], the MIC was determined as 1 µg/mL (≈ 1.5 µM) with S. aureus 133 (setting [2]), 1 µg/mL (≈ 1.5 µM) against S. aureus T17 and 16 µg/mL (≈ 24 µM) in the test with E. faecium L4001 (setting [3]). Further, the IC50 in test [1] was 0.1 µM.

Regarding `CN1C(=O)[C@H](C[C@@H](O)CN)NC(=O)[C@@H](N)Cc2cc(ccc2O)-c2cccc(c2)C[C@H]1C(=O)NCCC(=O)NC[C@@H](N)CCCN` [Example 68], the results for the MIC with S. aureus 133 (setting [2]), against S. aureus T17 and with E. faecium L4001 (setting [3]) were 1 µg/mL (≈ 1.56 µM), 1 µg/mL (≈ 1.56 µM) and 8 µg/mL (≈ 12.5 µM), respectively. The IC50 in test [1] was found to be 0.2 µM.

Usually MIC stands for the lowest concentration that inhibits growth of the organism. As usually defined, the IC50 is the concentration that gives 50% inhibition. Higher therefore signals weaker potency in that assay.
